Measured values reported in US20230165873A1, “Methods of Use for Single Molecule Compounds Providing Multi-Target Inhibition to Treat Covid 19” (priority 2020, published 2023).

Each molecule was assayed against PI3K gamma (Homo sapiens, UniProt P48736) (assay: PI3K gamma in vitro inhibition). Details: read-out: IC50 inhibition PI3K gamma.
PI3K gamma, sequence (P48736 whole entry): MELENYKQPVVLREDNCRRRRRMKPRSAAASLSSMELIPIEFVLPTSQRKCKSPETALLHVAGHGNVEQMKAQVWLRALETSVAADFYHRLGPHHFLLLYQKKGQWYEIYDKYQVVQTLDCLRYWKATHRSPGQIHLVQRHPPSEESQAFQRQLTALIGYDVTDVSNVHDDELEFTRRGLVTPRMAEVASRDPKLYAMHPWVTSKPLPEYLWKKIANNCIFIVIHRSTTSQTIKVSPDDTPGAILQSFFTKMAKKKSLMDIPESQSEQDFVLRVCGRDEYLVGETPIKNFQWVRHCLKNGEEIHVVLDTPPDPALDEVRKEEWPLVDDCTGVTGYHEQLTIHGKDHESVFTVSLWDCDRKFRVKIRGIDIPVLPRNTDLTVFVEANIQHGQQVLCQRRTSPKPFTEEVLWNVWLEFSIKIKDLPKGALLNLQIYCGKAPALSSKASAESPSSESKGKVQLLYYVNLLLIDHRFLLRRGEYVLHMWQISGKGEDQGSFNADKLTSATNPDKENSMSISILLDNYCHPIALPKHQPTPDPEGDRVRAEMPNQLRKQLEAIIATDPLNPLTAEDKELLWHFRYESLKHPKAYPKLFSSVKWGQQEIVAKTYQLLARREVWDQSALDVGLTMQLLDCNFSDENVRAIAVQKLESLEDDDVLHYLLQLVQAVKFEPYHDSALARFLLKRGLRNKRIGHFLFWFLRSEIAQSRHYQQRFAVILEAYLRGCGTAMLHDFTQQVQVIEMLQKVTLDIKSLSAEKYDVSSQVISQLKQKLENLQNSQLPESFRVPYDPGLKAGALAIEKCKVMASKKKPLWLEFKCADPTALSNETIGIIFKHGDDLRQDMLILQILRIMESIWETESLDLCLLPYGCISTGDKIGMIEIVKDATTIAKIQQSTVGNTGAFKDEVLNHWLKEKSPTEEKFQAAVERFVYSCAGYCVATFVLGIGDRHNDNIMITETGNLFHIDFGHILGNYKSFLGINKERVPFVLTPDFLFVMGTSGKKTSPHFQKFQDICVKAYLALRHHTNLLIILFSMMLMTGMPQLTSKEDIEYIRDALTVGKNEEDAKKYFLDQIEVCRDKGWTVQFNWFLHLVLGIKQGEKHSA
Format: biochemical
Procedure: (§1) The kinase or bromodomain inhibitory activity of a compound of the invention can be determined by routine methods known to the skilled artisan without undue experimentation, or by procuring relevant analysis by a commercial vendor offering such services. […] In vivo, PI3K inhibition can be determined from target tissue biopsies by standard tissue processing in which cells are disrupted and Western Blot analysis is performed to determine the presence or absence of pAKT (substrate of PI3K) relative to a control sample. PI3K inhibition assays and BTK inhibition assays are known in the art and can be procured commercially through vendors such as Reaction Biology (Malvern, PA). The activity of a compound of the invention as an inhibitor of a bromodomain-containing protein, such as a BET protein, including BRD2, BRD3, BRD4, and/or BRDT, or an isoform or mutant thereof, may be determined in vitro, in vivo, or in a cell line. In vitro assays include assays that determine inhibition of bromodomain-containing proteins. Alternatively, inhibitor binding may be determined by running a competition experiment where a provided compound is incubated with a bromodomain-containing protein, such as a BET protein bound to known ligands, labeled or unlabeled. In vitro bromodomain inhibition assays can be performed using Alpha Screen Technology (Perkin Elmer Life and Analytical Sciences, Shelton, CT). In vivo bromodomain inhibition can be determined indirectly by evaluating the amount of a protein whose gene transcription is influenced or controlled by the bromodomain protein, for example, MYCN protein transcription is controlled by BRD4 (J.E. Delmore et al., Cell 2011, 146, 904-917; A. Puissant, Cancer Discov. 2013, 3, 308-323).
(§2) IC50 inhibition data against the indicated targets were determined for compounds of the invention using standard in vitro assays (Tables 8 and 9).
With `CC(C)(C)OC(=O)Nc1cc2cnc(Nc3ccc(-c4csc5c(=O)cc(N6CCOCC6)oc45)cc3)nc2n1C1CCCC1` [Compound 25-3] the IC50 was 1000 to 10000 nM.
`C=CC(=O)Nc1ccc(-c2csc3c(=O)cc(N4CCOCC4)oc23)cc1` [Compound 30] showed an IC50 of 500 to 1000 nM.
In the case of `C=CC(=O)Nc1cccc(-c2csc3c(=O)cc(N4CCOCC4)oc23)c1` [Compound 31], the IC50 is reported as 1000 to 10000 nM.
Molecule `C=CC(=O)N1CCOc2ccc(-c3csc4c(=O)cc(N5CCOCC5)oc34)cc21` [Compound 32] has an IC50 of under 500 nM.
`COc1cc(NC(C)=O)cc(-c2csc3c(=O)cc(N4CCOCC4)oc23)c1` [Compound 33] showed an IC50 of under 500 nM.
`C=CC(=O)Nc1cc(-c2csc3c(=O)cc(N4CCOCC4)oc23)ccc1OC` [Compound 36] gave an IC50 of 1000 to 10000 nM.
Work on `C/C=C(/C)C(=O)N1CCOc2ccc(-c3csc4c(=O)cc(N5CCOCC5)oc34)cc21` [Compound 37] yielded an IC50 of 500 to 1000 nM.

Each molecule was assayed against PI3K beta (Homo sapiens, UniProt P42338) (assay: PI3K beta in vitro inhibition). Details: not given.
PI3K beta, sequence (P42338 whole entry): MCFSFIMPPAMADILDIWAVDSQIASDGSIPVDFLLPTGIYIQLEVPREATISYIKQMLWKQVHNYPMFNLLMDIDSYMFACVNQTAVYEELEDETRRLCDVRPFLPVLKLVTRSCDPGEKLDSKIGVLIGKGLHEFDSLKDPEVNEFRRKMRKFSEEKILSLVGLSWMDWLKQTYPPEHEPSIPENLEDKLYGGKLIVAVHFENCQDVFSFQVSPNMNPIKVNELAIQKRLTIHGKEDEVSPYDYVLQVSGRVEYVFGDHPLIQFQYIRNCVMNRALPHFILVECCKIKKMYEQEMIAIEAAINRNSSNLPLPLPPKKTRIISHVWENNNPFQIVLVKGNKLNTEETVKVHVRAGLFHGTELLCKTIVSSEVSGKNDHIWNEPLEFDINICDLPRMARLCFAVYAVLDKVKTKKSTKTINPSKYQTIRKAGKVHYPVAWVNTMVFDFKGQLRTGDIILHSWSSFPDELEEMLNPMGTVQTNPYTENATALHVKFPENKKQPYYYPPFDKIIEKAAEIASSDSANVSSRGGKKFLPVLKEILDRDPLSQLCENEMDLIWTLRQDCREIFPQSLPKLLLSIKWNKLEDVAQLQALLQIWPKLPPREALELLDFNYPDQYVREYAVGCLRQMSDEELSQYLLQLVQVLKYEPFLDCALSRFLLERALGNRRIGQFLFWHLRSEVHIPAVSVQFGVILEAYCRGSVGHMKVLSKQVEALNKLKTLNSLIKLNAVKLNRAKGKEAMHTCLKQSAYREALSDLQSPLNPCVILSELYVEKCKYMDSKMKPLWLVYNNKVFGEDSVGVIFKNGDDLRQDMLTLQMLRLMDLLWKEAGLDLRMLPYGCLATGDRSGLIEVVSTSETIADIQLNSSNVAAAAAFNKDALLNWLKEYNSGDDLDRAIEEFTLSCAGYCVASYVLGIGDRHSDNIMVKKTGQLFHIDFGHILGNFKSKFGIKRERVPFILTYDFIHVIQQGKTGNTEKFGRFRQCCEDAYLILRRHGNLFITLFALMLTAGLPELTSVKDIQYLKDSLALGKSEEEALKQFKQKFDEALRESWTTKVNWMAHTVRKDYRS
PI3K beta, sequence (P27986 whole entry partner): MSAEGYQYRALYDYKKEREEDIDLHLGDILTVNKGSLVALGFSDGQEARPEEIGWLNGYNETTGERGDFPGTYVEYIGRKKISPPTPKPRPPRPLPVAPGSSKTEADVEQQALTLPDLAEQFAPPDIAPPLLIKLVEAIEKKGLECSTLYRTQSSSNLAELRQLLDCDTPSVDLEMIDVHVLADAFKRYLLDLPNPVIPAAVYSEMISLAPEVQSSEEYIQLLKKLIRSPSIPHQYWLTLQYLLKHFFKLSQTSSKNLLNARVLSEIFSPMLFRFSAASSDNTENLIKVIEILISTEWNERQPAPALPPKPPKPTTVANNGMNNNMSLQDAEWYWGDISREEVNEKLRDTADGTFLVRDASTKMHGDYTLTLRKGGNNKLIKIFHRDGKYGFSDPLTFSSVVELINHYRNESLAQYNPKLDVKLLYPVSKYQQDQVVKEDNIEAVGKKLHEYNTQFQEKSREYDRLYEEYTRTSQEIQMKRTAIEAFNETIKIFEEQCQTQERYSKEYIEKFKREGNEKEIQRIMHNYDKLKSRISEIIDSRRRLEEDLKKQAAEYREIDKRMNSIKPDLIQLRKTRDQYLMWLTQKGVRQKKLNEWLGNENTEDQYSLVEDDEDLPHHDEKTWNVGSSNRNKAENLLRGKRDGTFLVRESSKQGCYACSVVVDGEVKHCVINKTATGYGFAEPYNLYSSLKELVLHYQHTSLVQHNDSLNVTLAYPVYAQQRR
Format: biochemical
Procedure: as §1
In the case of `C=CC(=O)Nc1ccc(-c2csc3c(=O)cc(N4CCOCC4)oc23)cc1` [Compound 30], the IC50 is reported as under 500 nM.
With `C=CC(=O)Nc1cccc(-c2csc3c(=O)cc(N4CCOCC4)oc23)c1` [Compound 31] the IC50 was under 500 nM.
`C=CC(=O)N1CCOc2ccc(-c3csc4c(=O)cc(N5CCOCC5)oc34)cc21` [Compound 32] showed an IC50 of under 500 nM.
Work on `COc1cc(NC(C)=O)cc(-c2csc3c(=O)cc(N4CCOCC4)oc23)c1` [Compound 33] yielded an IC50 of under 500 nM.
`C=CC(=O)Nc1cc(-c2csc3c(=O)cc(N4CCOCC4)oc23)ccc1OC` [Compound 36] showed an IC50 of under 500 nM.
`C/C=C(/C)C(=O)N1CCOc2ccc(-c3csc4c(=O)cc(N5CCOCC5)oc34)cc21` [Compound 37] showed an IC50 of under 500 nM.

Each molecule was assayed against T1, BRD4-1 (Homo sapiens, UniProt O60885) (assay: BRD4-1 in vitro inhibition). Details: not given.
T1 construct: BRD4-1
Format: binding
Procedure: as §1
Molecule `CC(C)(C)OC(=O)Nc1cc2cnc(Nc3ccc(-c4csc5c(=O)cc(N6CCOCC6)oc45)cc3)nc2n1C1CCCC1` [Compound 25-3] has an IC50 of under 500 nM.
With `C=CC(=O)Nc1ccc(-c2csc3c(=O)cc(N4CCOCC4)oc23)cc1` [Compound 30] the IC50 was 1000 to 10000 nM.
`C=CC(=O)Nc1cccc(-c2csc3c(=O)cc(N4CCOCC4)oc23)c1` [Compound 31] gave an IC50 of 500 to 1000 nM.
In the case of `C=CC(=O)N1CCOc2ccc(-c3csc4c(=O)cc(N5CCOCC5)oc34)cc21` [Compound 32], the IC50 is reported as under 500 nM.
Work on `COc1cc(NC(C)=O)cc(-c2csc3c(=O)cc(N4CCOCC4)oc23)c1` [Compound 33] yielded an IC50 of under 500 nM.
For `C=CC(=O)Nc1cc(-c2csc3c(=O)cc(N4CCOCC4)oc23)ccc1OC` [Compound 36], the IC50 was under 500 nM.
`C/C=C(/C)C(=O)N1CCOc2ccc(-c3csc4c(=O)cc(N5CCOCC5)oc34)cc21` [Compound 37] showed an IC50 of 500 to 1000 nM.

What follows are molecules tested against PI3K alpha (Homo sapiens, UniProt P42336) (assay: PI3K alpha in vitro inhibition). Details: not given.
PI3K alpha, sequence (P42336 whole entry): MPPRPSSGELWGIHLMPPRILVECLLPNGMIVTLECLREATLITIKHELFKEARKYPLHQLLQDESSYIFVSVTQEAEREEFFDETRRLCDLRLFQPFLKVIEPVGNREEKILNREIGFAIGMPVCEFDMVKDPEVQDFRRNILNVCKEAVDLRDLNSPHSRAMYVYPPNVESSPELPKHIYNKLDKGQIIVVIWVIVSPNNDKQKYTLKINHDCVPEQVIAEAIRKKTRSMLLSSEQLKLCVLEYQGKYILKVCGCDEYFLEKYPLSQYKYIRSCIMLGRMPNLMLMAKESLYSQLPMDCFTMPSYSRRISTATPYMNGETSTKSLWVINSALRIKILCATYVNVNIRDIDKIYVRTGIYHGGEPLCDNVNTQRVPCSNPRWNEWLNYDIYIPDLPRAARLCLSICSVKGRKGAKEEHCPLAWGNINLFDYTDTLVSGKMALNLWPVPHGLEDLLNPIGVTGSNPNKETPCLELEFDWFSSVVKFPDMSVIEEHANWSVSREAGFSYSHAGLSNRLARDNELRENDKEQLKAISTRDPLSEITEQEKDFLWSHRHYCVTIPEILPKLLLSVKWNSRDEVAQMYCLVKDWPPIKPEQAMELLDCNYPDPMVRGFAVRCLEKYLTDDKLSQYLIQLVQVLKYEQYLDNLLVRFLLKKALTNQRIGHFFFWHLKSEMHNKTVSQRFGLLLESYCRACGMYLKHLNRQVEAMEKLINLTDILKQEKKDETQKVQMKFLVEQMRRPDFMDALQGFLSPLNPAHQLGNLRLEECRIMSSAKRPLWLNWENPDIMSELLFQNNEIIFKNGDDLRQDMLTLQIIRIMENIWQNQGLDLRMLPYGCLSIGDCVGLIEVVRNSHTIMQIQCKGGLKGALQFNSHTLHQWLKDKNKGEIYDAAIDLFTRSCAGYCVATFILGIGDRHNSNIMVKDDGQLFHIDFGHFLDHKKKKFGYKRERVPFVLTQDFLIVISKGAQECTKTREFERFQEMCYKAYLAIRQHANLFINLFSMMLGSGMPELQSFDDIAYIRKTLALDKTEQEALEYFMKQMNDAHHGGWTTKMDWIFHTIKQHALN
PI3K alpha, sequence (P27986 whole entry partner): as the sequence (P27986 whole entry partner) above
Format: biochemical
Procedure: as §1
Work on `CC(C)(C)OC(=O)Nc1cc2cnc(Nc3ccc(-c4csc5c(=O)cc(N6CCOCC6)oc45)cc3)nc2n1C1CCCC1` [Compound 25-3] yielded an IC50 of under 500 nM.
`C=CC(=O)Nc1ccc(-c2csc3c(=O)cc(N4CCOCC4)oc23)cc1` [Compound 30] showed an IC50 of under 500 nM.
Work on `C=CC(=O)Nc1cccc(-c2csc3c(=O)cc(N4CCOCC4)oc23)c1` [Compound 31] yielded an IC50 of under 500 nM.
In the case of `C=CC(=O)N1CCOc2ccc(-c3csc4c(=O)cc(N5CCOCC5)oc34)cc21` [Compound 32], the IC50 is reported as under 500 nM.
`COc1cc(NC(C)=O)cc(-c2csc3c(=O)cc(N4CCOCC4)oc23)c1` [Compound 33] was tested, and the IC50 was under 500 nM.
`C=CC(=O)Nc1cc(-c2csc3c(=O)cc(N4CCOCC4)oc23)ccc1OC` [Compound 36] showed an IC50 of under 500 nM.
Work on `C/C=C(/C)C(=O)N1CCOc2ccc(-c3csc4c(=O)cc(N5CCOCC5)oc34)cc21` [Compound 37] yielded an IC50 of under 500 nM.

These molecules were tested against CDK4 cyclinD1 (Homo sapiens, UniProt P11802) (assay: CDK4 cyclinD1 in vitro inhibition). Details: not given.
Format: biochemical
Procedure: as §1, §2
Molecule `CC(C)(C)OC(=O)Nc1cc2cnc(Nc3ccc(-c4csc5c(=O)cc(N6CCOCC6)oc45)cc3)nc2n1C1CCCC1` [Compound 25-3] has an IC50 of under 500 nM.

These molecules were tested against BTK C481S (Homo sapiens, UniProt Q06187, C481S) (assay: BTK C481S in vitro inhibition). Details: not given.
BTK C481S, sequence (Q06187 whole entry C481S): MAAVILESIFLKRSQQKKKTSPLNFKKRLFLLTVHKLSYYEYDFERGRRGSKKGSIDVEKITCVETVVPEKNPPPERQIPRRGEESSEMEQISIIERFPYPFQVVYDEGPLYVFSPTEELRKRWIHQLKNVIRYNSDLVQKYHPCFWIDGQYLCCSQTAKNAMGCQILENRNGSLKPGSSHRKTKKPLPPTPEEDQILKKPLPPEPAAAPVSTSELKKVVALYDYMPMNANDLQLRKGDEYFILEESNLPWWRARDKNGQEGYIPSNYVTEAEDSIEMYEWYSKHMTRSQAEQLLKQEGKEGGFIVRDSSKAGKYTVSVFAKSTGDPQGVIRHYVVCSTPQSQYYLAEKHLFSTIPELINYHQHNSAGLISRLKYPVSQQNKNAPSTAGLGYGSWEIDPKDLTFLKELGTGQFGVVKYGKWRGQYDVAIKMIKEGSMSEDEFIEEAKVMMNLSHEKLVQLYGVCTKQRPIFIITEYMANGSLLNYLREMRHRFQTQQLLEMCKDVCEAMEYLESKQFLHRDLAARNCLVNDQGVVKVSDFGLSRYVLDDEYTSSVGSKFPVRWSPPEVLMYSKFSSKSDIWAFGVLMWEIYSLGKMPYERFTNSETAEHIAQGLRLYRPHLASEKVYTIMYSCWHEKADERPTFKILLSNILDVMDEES
Format: biochemical
Procedure: as §1, §2
`C=CC(=O)Nc1ccc(-c2csc3c(=O)cc(N4CCOCC4)oc23)cc1` [Compound 30] showed an IC50 of over 45000 nM.
Molecule `C=CC(=O)Nc1cccc(-c2csc3c(=O)cc(N4CCOCC4)oc23)c1` [Compound 31] has an IC50 of over 45000 nM.
In the case of `C=CC(=O)N1CCOc2ccc(-c3csc4c(=O)cc(N5CCOCC5)oc34)cc21` [Compound 32], the IC50 is reported as 10000 to 45000 nM.
Molecule `COc1cc(NC(C)=O)cc(-c2csc3c(=O)cc(N4CCOCC4)oc23)c1` [Compound 33] has an IC50 of over 45000 nM.
For `C=CC(=O)Nc1cc(-c2csc3c(=O)cc(N4CCOCC4)oc23)ccc1OC` [Compound 36], the IC50 was 1000 to 10000 nM.
In the case of `C/C=C(/C)C(=O)N1CCOc2ccc(-c3csc4c(=O)cc(N5CCOCC5)oc34)cc21` [Compound 37], the IC50 is reported as over 45000 nM.

These molecules were tested against T2, BRD4-2 (Homo sapiens, UniProt O60885) (assay: BRD4-2 in vitro inhibition). Details: not given.
T2 construct: BRD4-2
Format: binding
Procedure: as §1
`CC(C)(C)OC(=O)Nc1cc2cnc(Nc3ccc(-c4csc5c(=O)cc(N6CCOCC6)oc45)cc3)nc2n1C1CCCC1` [Compound 25-3] showed an IC50 of 500 to 1000 nM.
With `C=CC(=O)Nc1ccc(-c2csc3c(=O)cc(N4CCOCC4)oc23)cc1` [Compound 30] the IC50 was under 500 nM.
`C=CC(=O)Nc1cccc(-c2csc3c(=O)cc(N4CCOCC4)oc23)c1` [Compound 31] was tested, and the IC50 was 1000 to 10000 nM.
`C=CC(=O)N1CCOc2ccc(-c3csc4c(=O)cc(N5CCOCC5)oc34)cc21` [Compound 32] was tested, and the IC50 was under 500 nM.
Molecule `COc1cc(NC(C)=O)cc(-c2csc3c(=O)cc(N4CCOCC4)oc23)c1` [Compound 33] has an IC50 of 1000 to 10000 nM.
`C=CC(=O)Nc1cc(-c2csc3c(=O)cc(N4CCOCC4)oc23)ccc1OC` [Compound 36] showed an IC50 of 500 to 1000 nM.
`C/C=C(/C)C(=O)N1CCOc2ccc(-c3csc4c(=O)cc(N5CCOCC5)oc34)cc21` [Compound 37] gave an IC50 of 500 to 1000 nM.

The molecules below were run against PI3K delta (Homo sapiens, UniProt O00329) (assay: PI3K delta in vitro inhibition). Details: not given.
Format: biochemical
Procedure: as §1, §2
With `CC(C)(C)OC(=O)Nc1cc2cnc(Nc3ccc(-c4csc5c(=O)cc(N6CCOCC6)oc45)cc3)nc2n1C1CCCC1` [Compound 25-3] the IC50 was under 500 nM.

The molecules below were run against CDK6 cyclinD1 (Homo sapiens, UniProt Q00534) (assay: CDK6 cyclinD1 in vitro inhibition). Details: not given.
Format: biochemical
Procedure: as §1, §2
`CC(C)(C)OC(=O)Nc1cc2cnc(Nc3ccc(-c4csc5c(=O)cc(N6CCOCC6)oc45)cc3)nc2n1C1CCCC1` [Compound 25-3] was tested, and the IC50 was under 500 nM.

These molecules were tested against BTK (Homo sapiens, UniProt Q06187) (assay: BTK in vitro inhibition). Details: not given.
BTK, sequence (Q06187 whole entry): as the sequence (Q06187 whole entry C481S) above, with S481C counted along it
Format: biochemical
Procedure: as §1, §2
For `C=CC(=O)Nc1ccc(-c2csc3c(=O)cc(N4CCOCC4)oc23)cc1` [Compound 30], the IC50 was 10000 to 45000 nM.
`C=CC(=O)Nc1cccc(-c2csc3c(=O)cc(N4CCOCC4)oc23)c1` [Compound 31] showed an IC50 of 500 to 1000 nM.
For `C=CC(=O)N1CCOc2ccc(-c3csc4c(=O)cc(N5CCOCC5)oc34)cc21` [Compound 32], the IC50 was under 500 nM.
With `COc1cc(NC(C)=O)cc(-c2csc3c(=O)cc(N4CCOCC4)oc23)c1` [Compound 33] the IC50 was 500 to 1000 nM.
`C=CC(=O)Nc1cc(-c2csc3c(=O)cc(N4CCOCC4)oc23)ccc1OC` [Compound 36] showed an IC50 of 1000 to 10000 nM.
In the case of `C/C=C(/C)C(=O)N1CCOc2ccc(-c3csc4c(=O)cc(N5CCOCC5)oc34)cc21` [Compound 37], the IC50 is reported as 10000 to 45000 nM.
